Assay results: PMC5578959, “Selective LRRK2 kinase inhibition reduces phosphorylation of endogenous Rab10 and Rab12 in human peripheral mononuclear blood cells” (Scientific Reports, 2017)
“And” between values parts separate entries of the source, which are not always exact repeats. Equal entries are not always repeated.

Tests used:
Test in all cases: KiNativ profiling in human PBMCs
Assay type in all cases: binding
ABL,ARG = conditions: Activation Loop
Summary of the method: (§1)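 Compound was applied to living PBMCs at 0.1 µM or 1 µM. Occupancy of kinases was then assessed by KiNativ.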

[1] = system: ZC1/HGK,ZC2/TNIK,ZC3/MINK; conditions: Lys2
Summary of the method: as §1

MAP2K7 = system: T1, MAP2K7; conditions: Lys2
T1 construct: purchased ActivX Technologies (KiNativ)
Summary of the method: as §1

PIK3CD = system: T2, PIK3CD; conditions: ATP
T2 construct: purchased ActivX Technologies (KiNativ)
Summary of the method: as §1

CHK2 = system: T3, CHK2
T3 construct: purchased ActivX Technologies (KiNativ)
Summary of the method: as §1

NuaK2 = system: T4, NuaK2; conditions: Lys1
T4 construct: purchased ActivX Technologies (KiNativ)
Summary of the method: as §1

NEK6,NEK7 = conditions: Lys2
Summary of the method: as §1

Erk1 = system: T5, Erk1; conditions: Lys2
T5 construct: purchased ActivX Technologies (KiNativ)
Summary of the method: as §1

CaMK2d = system: T6, CaMK2d; conditions: Lys1
T6 construct: purchased ActivX Technologies (KiNativ)
Summary of the method: as §1

NEK8 = system: T7, NEK8; conditions: Lys2
T7 construct: purchased ActivX Technologies (KiNativ)
Summary of the method: as §1

JAK1 domain1 = system: T8, JAK1 domain1; conditions: Other
T8 construct: JAK1 domain1; purchased ActivX Technologies (KiNativ)
Summary of the method: as §1

RSK2 domain2 = system: T9, RSK2 domain2; conditions: Lys2
T9 construct: RSK2 domain2; purchased ActivX Technologies (KiNativ)
Summary of the method: as §1

LRRK2 = system: T10, LRRK2; conditions: Lys2
T10 construct: purchased ActivX Technologies (KiNativ)
Summary of the method: as §1

RSK1,RSK2,RSK3 domain1 = conditions: Lys2
Summary of the method: as §1

GSK3A = system: T11, GSK3A; conditions: Lys2
T11 construct: purchased ActivX Technologies (KiNativ)
Summary of the method: as §1

MAP3K2,MAP3K3 = conditions: Lys2
Summary of the method: as §1

MAST3 = system: T12, MAST3; conditions: Lys2
T12 construct: purchased ActivX Technologies (KiNativ)
Summary of the method: as §1

IRAK3 = system: T13, IRAK3; conditions: Lys1
T13 construct: purchased ActivX Technologies (KiNativ)
Summary of the method: as §1

PYK2 = system: T14, PYK2; conditions: Lys1
T14 construct: purchased ActivX Technologies (KiNativ)
Summary of the method: as §1

QSK = system: T15, QSK; conditions: Lys1
T15 construct: purchased ActivX Technologies (KiNativ)
Summary of the method: as §1

PCTAIRE2 = system: T16, PCTAIRE2; conditions: Lys2
T16 construct: purchased ActivX Technologies (KiNativ)
Summary of the method: as §1

ILK = system: T17, ILK
T17 construct: purchased ActivX Technologies (KiNativ)
Summary of the method: as §1

PIK3CB = system: T18, PIK3CB; conditions: ATP
T18 construct: purchased ActivX Technologies (KiNativ)
Summary of the method: as §1

CaMK2g = system: T19, CaMK2g; conditions: Lys1
T19 construct: purchased ActivX Technologies (KiNativ)
Summary of the method: as §1

CSK = system: T20, CSK
T20 construct: purchased ActivX Technologies (KiNativ)
Summary of the method: as §1

NEK4 = system: T21, NEK4; conditions: Lys2
T21 construct: purchased ActivX Technologies (KiNativ)
Summary of the method: as §1

MAP2K3 = system: T22, MAP2K3
T22 construct: purchased ActivX Technologies (KiNativ)
Summary of the method: as §1

KHS1 = system: T23, KHS1; conditions: Lys1
T23 construct: purchased ActivX Technologies (KiNativ)
Summary of the method: as §1

PKCa,PKCb = conditions: Lys2
Summary of the method: as §1

CaMKK2 = system: T24, CaMKK2; conditions: Lys2
T24 construct: purchased ActivX Technologies (KiNativ)
Summary of the method: as §1

BRAF = system: T25, BRAF; conditions: Lys2
T25 construct: purchased ActivX Technologies (KiNativ)
Summary of the method: as §1

PCTAIRE1,PCTAIRE3 = conditions: Lys2
Summary of the method: as §1

CaMK4 = system: T26, CaMK4
T26 construct: purchased ActivX Technologies (KiNativ)
Summary of the method: as §1

ZAP70 = system: T27, ZAP70
T27 construct: purchased ActivX Technologies (KiNativ)
Summary of the method: as §1

ACK = system: T28, ACK; conditions: Lys1
T28 construct: purchased ActivX Technologies (KiNativ)
Summary of the method: as §1

Erk2 = system: T29, Erk2; conditions: Lys2
T29 construct: purchased ActivX Technologies (KiNativ)
Summary of the method: as §1

MAP3K1 = system: T30, MAP3K1; conditions: Lys2
T30 construct: purchased ActivX Technologies (KiNativ)
Summary of the method: as §1

## Cc1cccc(-c2cc(Nc3ccn(C)n3)nc3[nH]cc(C#N)c23)c1 [Lu AF58786]
ABL,ARG; 0.1µM
  Inhibition: -81.9%
ABL,ARG; 1µM
  Inhibition: -7.3%
[1]; 0.1µM
  Inhibition: 6.6%
[1]; 1µM
  Inhibition: -3.7%
MAP2K7; 0.1µM
  Inhibition: 18.1%
MAP2K7; 1µM
  Inhibition: -7.3%
PIK3CD; 0.1 µM, TKVNWLAHNVSKDNRQ
  Inhibition: -4.8%
PIK3CD; 0.1 µM, VNWLAHNVSKDNRQ
  Inhibition: 8.9%
PIK3CD; 1 µM, TKVNWLAHNVSKDNRQ
  Inhibition: 14.4%
PIK3CD; 1 µM, VNWLAHNVSKDNRQ
  Inhibition: 18.8%
CHK2; 0.1µM, Lys1
  Inhibition: 15.1%
CHK2; 0.1µM, Lys2
  Inhibition: 2.3%
CHK2; 1µM, Lys1
  Inhibition: 2.8%
CHK2; 1µM, Lys2
  Inhibition: -16.2%
NuaK2; 0.1µM
  Inhibition: 20.0%
NuaK2; 1µM
  Inhibition: 38.2%
NEK6,NEK7; 0.1µM
  Inhibition: 15.4%
NEK6,NEK7; 1µM
  Inhibition: -5.8%
Erk1; 0.1µM
  Inhibition: 2.3%
Erk1; 1µM
  Inhibition: 1.5%
CaMK2d; 0.1µM
  Inhibition: 3.9%
CaMK2d; 1µM
  Inhibition: -3.2%
NEK8; 0.1µM
  Inhibition: -2.3%
NEK8; 1µM
  Inhibition: -10.4%
JAK1 domain1; 0.1 µM
  Inhibition: 19.3%
JAK1 domain1; 1 µM
  Inhibition: 55.0%
RSK2 domain2; 0.1µM
  Inhibition: -3.4%
RSK2 domain2; 1µM
  Inhibition: 2.8%
LRRK2; 0.1 µM
  Inhibition: 83% and 83.4%
LRRK2; 1 µM
  Inhibition: 93% and 93.4%
RSK1,RSK2,RSK3 domain1; 0.1µM
  Inhibition: 14.1%
RSK1,RSK2,RSK3 domain1; 1µM
  Inhibition: 29.7%
GSK3A; 0.1µM
  Inhibition: 13.7%
GSK3A; 1µM
  Inhibition: 27.3%
MAP3K2,MAP3K3; 0.1µM
  Inhibition: 6.3%
MAP3K2,MAP3K3; 1µM
  Inhibition: 0.325%
MAST3; 0.1µM
  Inhibition: 11.5%
MAST3; 1µM
  Inhibition: 0.2%
IRAK3; 0.1µM
  Inhibition: -25.6%
IRAK3; 1µM
  Inhibition: 17.0%
PYK2; 0.1µM
  Inhibition: -16.3%
PYK2; 1µM
  Inhibition: -2.7%
QSK; 0.1µM
  Inhibition: 15.6%
QSK; 1µM
  Inhibition: 28.4%
PCTAIRE2; 0.1µM
  Inhibition: 18.1%
PCTAIRE2; 1µM
  Inhibition: -0.164%
ILK; 0.1µM, Lys1
  Inhibition: 2.8%
ILK; 0.1µM, Protein Kinase Domain
  Inhibition: -27.2%
ILK; 1µM, Lys1
  Inhibition: 5.7%
ILK; 1µM, Protein Kinase Domain
  Inhibition: -1.7%
PIK3CB; 0.1µM
  Inhibition: 14.0%
PIK3CB; 1µM
  Inhibition: -22.3%
CaMK2g; 0.1µM
  Inhibition: 3.3%
CaMK2g; 1µM
  Inhibition: -7.2%
CSK; 0.1µM, Activation Loop
  Inhibition: 7.6%
CSK; 0.1µM, Lys1
  Inhibition: 16.0%
CSK; 1µM, Activation Loop
  Inhibition: -1.7%
CSK; 1µM, Lys1
  Inhibition: 6.8%
NEK4; 0.1µM
  Inhibition: -32.0%
NEK4; 1µM
  Inhibition: -14.9%
MAP2K3; 0.1µM, Lys1
  Inhibition: -31.6%
MAP2K3; 0.1µM, Lys2
  Inhibition: -1.9%
MAP2K3; 1µM, Lys1
  Inhibition: -37.3%
MAP2K3; 1µM, Lys2
  Inhibition: 0.27%
KHS1; 0.1µM
  Inhibition: 3.0%
KHS1; 1µM
  Inhibition: -2.5%
PKCa,PKCb; 0.1µM
  Inhibition: -5.7%
PKCa,PKCb; 1µM
  Inhibition: -0.9%
CaMKK2; 0.1µM
  Inhibition: 13.8%
CaMKK2; 1µM
  Inhibition: 1.3%
BRAF; 0.1µM
  Inhibition: 6.1%
BRAF; 1µM
  Inhibition: -13.8%
PCTAIRE1,PCTAIRE3; 0.1µM
  Inhibition: 5.6%
PCTAIRE1,PCTAIRE3; 1µM
  Inhibition: -11.1%
CaMK4; 0.1µM, Lys1
  Inhibition: 11.0%
CaMK4; 0.1µM, Lys2
  Inhibition: 14.0%
CaMK4; 1µM, Lys1
  Inhibition: 23.7%
CaMK4; 1µM, Lys2
  Inhibition: 12.9%
ZAP70; 0.1µM, Activation Loop
  Inhibition: 14.7%
ZAP70; 0.1µM, Lys1
  Inhibition: 4.6%
ZAP70; 1µM, Activation Loop
  Inhibition: 7.0%
ZAP70; 1µM, Lys1
  Inhibition: 7.9%
ACK; 0.1µM
  Inhibition: -14.9%
ACK; 1µM
  Inhibition: -10.3%
Erk2; 0.1µM
  Inhibition: 2.4%
Erk2; 1µM
  Inhibition: 1.7%
MAP3K1; 0.1µM
  Inhibition: 9.1%
MAP3K1; 1µM
  Inhibition: 0.247%
